Test results: US8952024B2, “Herbicidal pyrimidone derivatives” (E I du Pont de Nemours and Company, priority 2009, dated 2015)

Key:
Test in all cases: Test B pre-/postemergence plant response
Format in all cases: in vivo
[1] = tested on: Surinam grass (Brachiaria decumbens)
In short: (§1)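 Visual injury, 0–100 scale (100 = complete control), rated against controls after 13 to 15 days in greenhouse. Pre-emergence: seeds in loam/sand soil, treated at planting. Post-emergence: 1- to 4-leaf plants (2 to 18 cm) in peat/vermiculite medium. Compounds formulated in non-phytotoxic solvent with surfactant.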

[2] = tested on: blackgrass (Alopecurus myosuroides)
In short: as §1

corn (Zea mays) = tested on: corn (Zea mays)
In short: as §1

[3] = tested on: downy bromegrass (Bromus tectorum)
In short: as §1

[4] = tested on: goosegrass (Eleusine indica)
In short: as §1

[5] = tested on: green foxtail (Setaria viridis)
In short: as §1

[6] = tested on: johnsongrass (Sorghum halepense)
In short: as §1

kochia (Kochia scoparia) = tested on: kochia (Kochia scoparia)
In short: as §1

[7] = tested on: lambsquarters (Chenopodium album)
In short: as §1

[8] = tested on: large crabgrass (Digitaria sanguinalis)
In short: as §1

[9] = tested on: morningglory (Ipomoea coccinea)
In short: as §1

[10] = tested on: pigweed (Amaranthus retroflexus)
In short: as §1

soybean (Glycine max) = tested on: soybean (Glycine max)
In short: as §1

[11] = tested on: velvetleaf (Abutilon theophrasti)
In short: as §1

wild oat (Avena fatua) = tested on: wild oat (Avena fatua)
In short: as §1

[12] = tested on: woolly cupgrass (Eriochloa villosa)
In short: as §1

[13] = tested on: yellow nutsedge (Cyperus esculentus)
In short: as §1

[14] = 31 g ai/ha, postemergence, scale 0 to 100, 0 is no effect, 100 is complete control
[15] = Postemergence, 62 g ai/ha, scale 0 (no effect) to 100 (complete control), 13 to 15 days
[16] = Postemergence, 125 g ai/ha, visual rating after 13 to 15 days, scale 0 (no effect) to 100 (complete control)
[17] = Postemergence, 250 g ai/ha, scale 0 to 100 (0 no effect, 100 complete control)
[18] = Preemergence, 31 g ai/ha, scale 0 to 100 (0 no effect, 100 complete control)
[19] = Preemergence, 62 g ai/ha, scale 0 to 100, 0 no effect, 100 complete control
[20] = Preemergence, 125 g ai/ha, scale 0 to 100, 0 no effect, 100 complete control
[21] = 250 g ai/ha, Preemergence, 0 to 100 scale

Cc1cccc(-n2c(-c3ccccc3)ncc(C(=O)C3=C(O)CCCC3=O)c2=O)c1F [Compound 58]
Plant response rating, Surinam Grass [1, 14]: 70
Plant response rating, Surinam Grass [1, 15]: 80
Plant response rating, Surinam Grass [1, 16]: 95
Plant response rating, Surinam Grass [1, 17]: 98
Plant response rating, Surinam Grass [1, 18]: 40
Plant response rating, Surinam Grass [1, 19]: 65
Plant response rating, Surinam Grass [1, 20]: 85
Plant response rating, Blackgrass [2, 14]: 5
Plant response rating, Blackgrass [2, 21]: 30
Plant response rating, Blackgrass [2, 15]: 10
Plant response rating, Blackgrass [2, 16]: 20
Plant response rating, Blackgrass [2, 17]: 40
Plant response rating, Blackgrass [2, 18]: 0
Plant response rating, Blackgrass [2, 19]: 0
Plant response rating, Blackgrass [2, 20]: 5
Plant response rating, Corn (corn (Zea mays); [14]): 0
Plant response rating, Corn (corn (Zea mays); [21]): 0
Plant response rating, Corn (corn (Zea mays); [15]): 45
Plant response rating, Corn (corn (Zea mays); [16]): 65
Plant response rating, Corn (corn (Zea mays); [17]): 80
Plant response rating, Corn (corn (Zea mays); [18]): 0
Plant response rating, Corn (corn (Zea mays); [19]): 0
Plant response rating, Corn (corn (Zea mays); [20]): 0
Plant response rating, Bromegrass, Downy [3, 14]: 40
Plant response rating, Bromegrass, Downy [3, 21]: 0
Plant response rating, Bromegrass, Downy [3, 15]: 40
Plant response rating, Bromegrass, Downy [3, 16]: 45
Plant response rating, Bromegrass, Downy [3, 17]: 50
Plant response rating, Bromegrass, Downy [3, 18]: 0
Plant response rating, Bromegrass, Downy [3, 19]: 0
Plant response rating, Bromegrass, Downy [3, 20]: 0
Plant response rating, Goosegrass [4, 14]: 70
Plant response rating, Goosegrass [4, 21]: 100
Plant response rating, Goosegrass [4, 15]: 75
Plant response rating, Goosegrass [4, 16]: 85
Plant response rating, Goosegrass [4, 17]: 90
Plant response rating, Goosegrass [4, 18]: 95
Plant response rating, Goosegrass [4, 19]: 98
Plant response rating, Goosegrass [4, 20]: 100
Plant response rating, Foxtail, Green [5, 14]: 75
Plant response rating, Foxtail, Green [5, 21]: 100
Plant response rating, Foxtail, Green [5, 15]: 90
Plant response rating, Foxtail, Green [5, 16]: 98
Plant response rating, Foxtail, Green [5, 17]: 100
Plant response rating, Foxtail, Green [5, 18]: 0
Plant response rating, Foxtail, Green [5, 19]: 5
Plant response rating, Foxtail, Green [5, 20]: 70
Plant response rating, Johnsongrass [6, 14]: 50
Plant response rating, Johnsongrass [6, 21]: 85
Plant response rating, Johnsongrass [6, 15]: 85
Plant response rating, Johnsongrass [6, 16]: 98
Plant response rating, Johnsongrass [6, 17]: 100
Plant response rating, Johnsongrass [6, 18]: 10
Plant response rating, Johnsongrass [6, 19]: 20
Plant response rating, Johnsongrass [6, 20]: 80
Plant response rating, Kochia (kochia (Kochia scoparia); [14]): 0
Plant response rating, Kochia (kochia (Kochia scoparia); [15]): 10
Plant response rating, Kochia (kochia (Kochia scoparia); [16]): 25
Plant response rating, Kochia (kochia (Kochia scoparia); [17]): 25
Plant response rating, Lambsquarters [7, 14]: 95
Plant response rating, Lambsquarters [7, 21]: 98
Plant response rating, Lambsquarters [7, 15]: 95
Plant response rating, Lambsquarters [7, 16]: 100
Plant response rating, Lambsquarters [7, 17]: 100
Plant response rating, Lambsquarters [7, 18]: 85
Plant response rating, Lambsquarters [7, 19]: 98
Plant response rating, Lambsquarters [7, 20]: 98
Plant response rating, Crabgrass, Large [8, 14]: 75
Plant response rating, Crabgrass, Large [8, 21]: 100
Plant response rating, Crabgrass, Large [8, 15]: 80
Plant response rating, Crabgrass, Large [8, 16]: 90
Plant response rating, Crabgrass, Large [8, 17]: 90
Plant response rating, Crabgrass, Large [8, 18]: 95
Plant response rating, Crabgrass, Large [8, 19]: 98
Plant response rating, Crabgrass, Large [8, 20]: 98
Plant response rating, Morningglory [9, 14]: 65
Plant response rating, Morningglory [9, 15]: 80
Plant response rating, Morningglory [9, 16]: 90
Plant response rating, Morningglory [9, 17]: 90
Plant response rating, Morningglory [9, 18]: 0
Plant response rating, Morningglory [9, 19]: 0
Plant response rating, Morningglory [9, 20]: 55
Plant response rating, Pigweed [10, 14]: 80
Plant response rating, Pigweed [10, 15]: 95
Plant response rating, Pigweed [10, 16]: 98
Plant response rating, Pigweed [10, 17]: 100
Plant response rating, Pigweed [10, 18]: 85
Plant response rating, Pigweed [10, 19]: 98
Plant response rating, Pigweed [10, 20]: 100
Plant response rating, Soybean (soybean (Glycine max); [14]): 85
Plant response rating, Soybean (soybean (Glycine max); [15]): 85
Plant response rating, Soybean (soybean (Glycine max); [16]): 95
Plant response rating, Soybean (soybean (Glycine max); [17]): 95
Plant response rating, Soybean (soybean (Glycine max); [18]): 10
Plant response rating, Soybean (soybean (Glycine max); [20]): 85
Plant response rating, Velvetleaf [11, 14]: 75
Plant response rating, Velvetleaf [11, 15]: 75
Plant response rating, Velvetleaf [11, 16]: 85
Plant response rating, Velvetleaf [11, 17]: 95
Plant response rating, Velvetleaf [11, 18]: 75
Plant response rating, Velvetleaf [11, 19]: 80
Plant response rating, Velvetleaf [11, 20]: 95
Plant response rating, Oat, Wild (wild oat (Avena fatua); [14]): 45
Plant response rating, Oat, Wild (wild oat (Avena fatua); [15]): 60
Plant response rating, Oat, Wild (wild oat (Avena fatua); [16]): 60
Plant response rating, Oat, Wild (wild oat (Avena fatua); [17]): 85
Plant response rating, Oat, Wild (wild oat (Avena fatua); [18]): 0
Plant response rating, Oat, Wild (wild oat (Avena fatua); [19]): 0
Plant response rating, Oat, Wild (wild oat (Avena fatua); [20]): 0
Plant response rating, Cupgrass, Woolly [12, 14]: 65
Plant response rating, Cupgrass, Woolly [12, 21]: 85
Plant response rating, Cupgrass, Woolly [12, 15]: 65
Plant response rating, Cupgrass, Woolly [12, 16]: 70
Plant response rating, Cupgrass, Woolly [12, 17]: 95
Plant response rating, Cupgrass, Woolly [12, 18]: 10
Plant response rating, Cupgrass, Woolly [12, 19]: 10
Plant response rating, Cupgrass, Woolly [12, 20]: 20
Plant response rating, Nutsedge, Yellow [13, 14]: 25
Plant response rating, Nutsedge, Yellow [13, 15]: 40
Plant response rating, Nutsedge, Yellow [13, 16]: 55
Plant response rating, Nutsedge, Yellow [13, 17]: 75
Plant response rating, Nutsedge, Yellow [13, 18]: 20
Plant response rating, Nutsedge, Yellow [13, 19]: 75
Plant response rating, Nutsedge, Yellow [13, 20]: 75
